Reference: the Deep4Chem optical property database
Each block holds one compound with its values, some of them ahead of it.

Test: solvent given as SMILES

Structure (SMILES): c1ccc(-c2cc(-c3ccc(N4c5ccccc5C(c5ccccc5)(c5ccccc5)c5ccccc54)cn3)nc(-c3ccccc3)n2)cc1
emission maximum (in Cc1ccccc1): 480 nm
emission maximum (in O=P(c1ccccc1)(c1ccccc1)c1ccccc1Oc1ccccc1P(=O)(c1ccccc1)c1ccccc1): 486 nm

emission maximum (in ClCCl): 733 nm
Structure (SMILES): CCOC(=O)COc1ccc(/C=C/C2=C3C(C)=CC(/C=C/c4ccc(OCC(=O)OCC)cc4)=[N+]3[B-](F)(F)n3c2c2ccccc2c3-c2[nH]c(C)cc2C)cc1

emission maximum (in ClCCl): 529 nm
Structure (SMILES): CCCCCCCCCCCCN1C(=O)c2c(c3ccc4cc(-c5ccc(C)cc5)c(OC)cc4c3c3c2ccc2cc(-c4ccc(C)cc4)c(OC)cc23)C1=O

Structure (SMILES): N#CC1=c2c3cccc4c(Br)ccc(c43)n2[B-](F)(F)[n+]2ccccc21
emission maximum (in C1CCOC1): 545 nm
emission maximum (in CC#N): 541 nm
emission maximum (in CCCCCC): 545 nm
emission maximum (in Cc1ccccc1): 550 nm
emission maximum (in ClCCl): 546 nm

emission maximum (in CC#N): 439 nm
Structure (SMILES): Brc1ccc(-c2pc3ccccc3s2)cc1 (stereo not given)

Structure (SMILES): CCCCCCCCCCCCOc1cc(/C=C/c2ccc3c(c2)C(CC)(CC)c2cc(N4c5ccccc5Sc5ccccc54)ccc2-3)c(OCCCCCCCCCCCC)cc1/C=C/c1ccc2c(c1)C(CC)(CC)c1cc(N3c4ccccc4Sc4ccccc43)ccc1-2
emission maximum (in C1CCOC1): 474 nm
emission maximum (in CC#N): 473 nm
emission maximum (in CCCCCC): 477 nm
emission maximum (in Cc1ccccc1): 468 nm
emission maximum (in ClCCl): 477 nm

emission maximum (in ClC(Cl)Cl): 710 nm
Structure (SMILES): COc1ccc(N(c2ccc(OC)cc2)c2ccc(-c3ccc(-c4ccc(-c5ccc(-c6ccc(N(c7ccc(OC)cc7)c7ccc(OC)cc7)cc6)s5)c5nsnc45)s3)cc2)cc1

emission maximum (in C1CCOC1): 476 nm
Structure (SMILES): COc1cc2c(cc1-c1ccc(C)cc1)Cc1c3c(c4c(c1-2)-c1cc(OC)c(-c2ccc(C)cc2)cc1C4)C(=O)N(CCC(C)C)C3=O

emission maximum (in ClCCl): 412 nm
Structure (SMILES): CCn1c2ccc(/C=C(\C#N)c3ccccc3)cc2c2cc(/C=C(\C#N)c3ccccc3)ccc21

Structure (SMILES): CCCCCCN(c1ccccc1)c1ccc2c(c1)C(CC)(CC)c1cc(/C=C/c3ccc(/C=C(\C#N)C(=O)O)s3)ccc1-2
emission maximum (in C1CCOC1): 651 nm
emission maximum (in C1COCCO1): 620 nm
emission maximum (in CC#N): 554 nm
emission maximum (in CC(C)=O): 574 nm
emission maximum (in CCOC(C)=O): 654 nm
emission maximum (in CN(C)C=O): 605 nm
emission maximum (in CS(C)=O): 627 nm
emission maximum (in ClCCl): 594 nm

Structure (SMILES): CCCCOc1ccc(-c2oc3cc4n(c3c2-c2ccc(OCCCC)cc2)[B-](F)(F)[N+]2=Cc3cc5oc(-c6ccc(OCCCC)cc6)c(-c6ccc(OCCCC)cc6)c5n3[B-](F)(F)[N+]2=C4)cc1
emission maximum (in C1CCOC1): 638 nm
emission maximum (in CN(C)C=O): 644 nm
emission maximum (in CS(C)=O): 647 nm
emission maximum (in Cc1ccccc1): 641 nm
emission maximum (in ClC(Cl)Cl): 646 nm
emission maximum (in ClCCl): 646 nm

emission maximum (in ClCCl): 418 nm
Structure (SMILES): COc1ccc(C2=Cc3ccccc3[Si]2(c2ccccc2)c2ccccc2)cc1

emission maximum (in C1CCCCC1): 406 nm
emission maximum (in C1CCOC1): 408 nm
emission maximum (in C1COCCO1): 410 nm
emission maximum (in CC#N): 426 nm
emission maximum (in CCOC(C)=O): 410 nm
emission maximum (in CN(C)C=O): 425 nm
emission maximum (in CO): 428 nm
emission maximum (in ClC(Cl)Cl): 426 nm
Structure (SMILES): O=C(O)c1ccccc1Nc1cccc(C(F)(F)F)c1

emission maximum (in ClCCl): 414 nm
Structure (SMILES): CC(C)(C)c1ccc2c(c1)c1ncncc1c1c3ccccc3sc21

emission maximum (in C1CCCCC1): 391 nm
Structure (SMILES): COc1ccc(C2=C(c3ccc(OC)cc3)C(C)(C)c3ccccc32)cc1

emission maximum (in ClC(Cl)Cl): 446 nm
Structure (SMILES): CC(C)(C)c1ccc2oc3nc4oc5ccc(-n6c7ccccc7c7ccccc76)cc5c4cc3c2c1

Structure (SMILES): CCn1c2ccccc2c2cc(C#Cc3cc(C#Cc4ccc5c(c4)c4ccccc4n5CC)nc(C#N)n3)ccc21
emission maximum (in C1CCOC1): 495 nm
emission maximum (in CCOC(C)=O): 494 nm
emission maximum (in CN(C)C=O): 557 nm
emission maximum (in Cc1ccccc1): 445 nm
emission maximum (in ClCCl): 510 nm

emission maximum (in CC#N): 510 nm
emission maximum (in O): 542 nm
Structure (SMILES): COc1ccc2c(c1)[n+]([O-])nc(N)[n+]2[O-]

emission maximum (in ClC(Cl)Cl): 371 nm
Structure (SMILES): CCCCc1cc(-c2cccc(COC)c2)oc1-c1cccc(-c2oc(-c3cccc(COC)c3)cc2CCCC)c1

Structure (SMILES): c1ccc(-c2nc(-c3ccccc3)nc(-c3ccc(-n4c5ccc(-c6ccc7oc8ccccc8c7c6)cc5c5cc(-c6ccc7oc8ccccc8c7c6)ccc54)cc3)n2)cc1
emission maximum (in CCOC(C)=O): 476 nm
emission maximum (in CN(C)C=O): 529 nm
emission maximum (in Cc1ccccc1): 437 nm

emission maximum (in CN(C)C=O): 417 nm
Structure (SMILES): Fc1cc(-c2ccc(-c3nc4cc(Br)ccc4[nH]3)cc2)ccc1-c1ccc(-c2nc3cc(Br)ccc3[nH]2)cc1

emission maximum (in ClCCl): 489 nm
Structure (SMILES): Cc1cc(-c2ccc(C(C)(C)C)cc2)c2nsnc2c1-c1ccc(C(C)(C)C)cc1

Structure (SMILES): CN(C)c1ccc(-c2ccc(-c3ccc(N(C)C)cc3)c3nc(-c4ccccc4)c(-c4ccccc4)nc23)cc1
emission maximum (in C1CCOC1): 601 nm
emission maximum (in CC#N): 646 nm
emission maximum (in CCCCCC): 538 nm
emission maximum (in CN(C)C=O): 648 nm
emission maximum (in Cc1ccccc1): 577 nm
emission maximum (in ClC(Cl)Cl): 597 nm

emission maximum (in CO): 630 nm
Structure (SMILES): CCN(CC)c1ccc(C=Cc2nc3nc4ccccc4nc3s2)cc1

emission maximum (in ClC(Cl)Cl): 673 nm
Structure (SMILES): CN1C(=CC2=C([O-])C(=Cc3oc4ccccc4[n+]3C)C2=C(C#N)C#N)C(C)(C)c2ccccc21

emission maximum (in ClCCl): 577 nm
Structure (SMILES): N#Cc1cc(/C=C/c2ccc(/C=C/c3ccc(N(c4ccccc4)c4ccccc4)cc3)c(C#N)c2)ccc1/C=C/c1ccc(N(c2ccccc2)c2ccccc2)cc1

emission maximum (in CO): 817 nm
Structure (SMILES): CC1(C)C(/C=C/C=C/C=C/C=C2/N(CCCCS(=O)(=O)[O-])c3ccc4ccccc4c3C2(C)C)=[N+](CCCCS(=O)(=O)[O-])c2ccc3ccccc3c21

emission maximum (in ClCCl): 514 nm
Structure (SMILES): O=C1OC(=O)C2=C1S[C@]13C2=C[C@H](c2ccccc21)c1ccccc13

emission maximum (in CO): 705 nm
emission maximum (in O): 708 nm
Structure (SMILES): CN(C)c1ccc2c(c1)C(C)(C)C1=CC(=[N+](C)C)C=CC1=C2C#Cc1ccccc1

emission maximum (in C1CCOC1): 492 nm
Structure (SMILES): Cc1ccc(-c2ccc(-c3ccc(C)cc3)c(/C(=C(/c3ccccc3)c3cc(-c4ccc(C)cc4)ccc3-c3ccc(C)cc3)c3ccccc3)c2)cc1

emission maximum (in C1CCOC1): 373 nm
emission maximum (in C1COCCO1): 402 nm
emission maximum (in CC#N): 495 nm
emission maximum (in CC(C)O): 411 nm
emission maximum (in CCCCO): 500 nm
emission maximum (in CCCO): 440 nm
emission maximum (in CCOC(C)=O): 495 nm
emission maximum (in CN(C)C=O): 494 nm
emission maximum (in CO): 415 nm
emission maximum (in CS(C)=O): 490 nm
emission maximum (in ClC(Cl)Cl): 438 nm
emission maximum (in O): 396 nm
Structure (SMILES): N#Cc1coc2ccccc2c1=O

emission maximum (in CC#N): 580 nm
emission maximum (in ClCCl): 578 nm
Structure (SMILES): CCN(CC)c1ccc(/N=N/c2nc3ccc(Br)cc3s2)cc1

emission maximum (in CC#N): 531 nm
Structure (SMILES): Cc1cc2nc3c(=O)n(C)c(=O)nc-3n(C)c2cc1C

emission maximum (in CN(C)C=O): 408 nm
Structure (SMILES): Cc1ccc2[nH]c(-c3ccc(-c4ccc(-c5ccc(-c6nc7cc(C)ccc7[nH]6)cc5)c(C)c4)cc3)nc2c1

emission maximum (in ClCCl): 442 nm
Structure (SMILES): CCOC(=O)/N=c1/oc2cc(OC)cc(OC)c2cc1C#N

Structure (SMILES): COc1ccc(-c2csc(/C(C#N)=C/c3ccc(C#N)cc3)n2)cc1
emission maximum (in CC#N): 561 nm
emission maximum (in CCO): 555 nm
emission maximum (in CN(C)C=O): 570 nm
emission maximum (in Cc1ccccc1): 519 nm
emission maximum (in ClCCl): 554 nm

Structure (SMILES): F[B-]1(F)n2cccc2C(c2ccc(-c3c4ccccc4c(-c4ccccc4)c4ccccc34)cc2)=C2C=CC=[N+]21
emission maximum (in CC#N): 516 nm
emission maximum (in CCCCCC): 517 nm
emission maximum (in CCO): 516 nm
emission maximum (in CN(C)C=O): 520 nm
emission maximum (in Cc1ccccc1): 524 nm
emission maximum (in ClCCl): 518 nm

emission maximum (in C1CCOC1): 375 nm
Structure (SMILES): CC(=O)c1ccc(-c2ccc3c(c2)C(=O)c2cc(-c4ccc(C(C)=O)cc4)ccc2-3)cc1

emission maximum (in ClC(Cl)Cl): 475 nm
Structure (SMILES): C[Si](C)(C)C#CC(C#C[Si](C)(C)C)=Cc1ccc(C=C(C#C[Si](C)(C)C)C#C[Si](C)(C)C)s1

emission maximum (in CCO): 428 nm
emission maximum (in ClCCl): 421 nm
Structure (SMILES): Clc1ncc(-c2c3ccccc3c(-c3cnc(Cl)nc3)c3ccccc23)cn1

emission maximum (in CCO): 418 nm
Structure (SMILES): Cc1nc2c(cc3c4c(cccc42)C(=O)OC3=O)o1

emission maximum (in C1COCCO1): 429 nm
emission maximum (in CC#N): 443 nm
emission maximum (in CO): 438 nm
Structure (SMILES): CN(C)c1ccc(/C=C/C=C/C2=NC3C(=O)NC(N)=NC3N2[C@H]2C[C@H](O)[C@@H](CO)O2)cc1 (stereo not given in full)

Structure (SMILES): COC(=O)/C(C#N)=c1\s/c(=c2/s/c(=C(/C#N)C(=O)OC)c3cc(-c4ccc(C)cc4)sc23)c2sc(-c3ccc(C)cc3)cc12
emission maximum (in Cc1ccccc1): 652 nm

emission maximum (in CO): 653 nm
emission maximum (in ClC(Cl)Cl): 664 nm
Structure (SMILES): CC[n+]1c(C=C2C(=O)C(C=C3N(C)c4ccc(Cl)cc4C3(C)C)=C2[O-])sc2ccccc21

emission maximum (in ClCCl): 537 nm
Structure (SMILES): CCC(C)Nc1c2ccc(=[N+]3CCCCC3)cc-2oc2cc(N3CCCCC3)ccc12 (stereo not given)

Structure (SMILES): S=P1(c2ccccc2)C(c2ccccc2)=Cc2cc3ccccc3cc21 (stereo not given)
emission maximum (in ClCCl): 425 nm

emission maximum (in CC#N): 436 nm
emission maximum (in CCCCCC): 378 nm
Structure (SMILES): C(=C\c1ccc(Nc2ccccc2)cc1)/c1ccccc1

emission maximum (in ClCCl): 509 nm
Structure (SMILES): c1ccc(N2N=C(c3c4ccccc4cc4ccccc34)CC2c2ccc3ccc4cccc5ccc2c3c45)cc1 (stereo not given)

Structure (SMILES): c1ccc(-c2nc(-c3ccc(-n4c5ccc(-n6c7ccccc7c7ccccc76)cc5c5ccc6c(c7ccccc7n6-c6ccccc6)c54)cc3)c3sc4ccccc4c3n2)cc1
emission maximum (in Cc1ccccc1): 460.56 nm

Structure (SMILES): COc1cc(Br)cc2cc(-c3cc4cc(Br)cc(OC)c4oc3=O)oc12
emission maximum (in CC#N): 381 nm
emission maximum (in CCOC(C)=O): 434 nm
emission maximum (in CS(C)=O): 387 nm
emission maximum (in Cc1ccccc1): 430 nm
emission maximum (in O): 497 nm

emission maximum (in ClCCl): 458 nm
Structure (SMILES): CCCCC(CC)Cn1c2cc(C#N)ccc2c2ccc(C#Cc3ccc4ccc5c(C#Cc6ccc7c8ccc(C#N)cc8n(CC(CC)CCCC)c7c6)cc(C#Cc6ccc7c8ccc(C#N)cc8n(CC(CC)CCCC)c7c6)c6ccc3c4c56)cc21 (stereo not given)

emission maximum (in ClCCl): 652 nm
Structure (SMILES): Cc1ccc(-c2c3nc(c(-c4ccc(C)cc4)c4ccc([nH]4)c(-c4ccc(OC(=O)C(C)c5ccc(CC(C)C)cc5)cc4)c4nc(c(-c5ccc(C)cc5)c5ccc2[nH]5)C=C4)C=C3)cc1 (stereo not given)

emission maximum (in c1cc(-c2cccc(-n3c4ccccc4c4ccccc43)c2)cc(-n2c3ccccc3c3ccccc32)c1): 475 nm
Structure (SMILES): N#Cc1c(-n2c3ccccc3c3ccccc32)nc(-n2c3ccccc3c3ccccc32)c(C#N)c1-c1ccccc1

emission maximum (in CN(C)C=O): 414 nm
Structure (SMILES): Fc1cc(-c2ccc(-c3nc4ccccc4[nH]3)cc2)ccc1-c1ccc(-c2nc3ccccc3[nH]2)cc1
